US5436229A, “Bisulfite adducts of arginine aldehydes” (Eli Lilly and Company, priority 1994, dated 1995)

Experiments:
Type in all cases: biochemical
human plasma [1] = assay: Human plasma anticoagulation, prothrombin time (PT)
Experimental: (§1) Fibrinogen is prepared from in-date ACD human blood as the fraction I-2 according to previous procedures and specifications. Smith, Biochem. […] Coagulation reagents ACTIN, Thromboplastin, and Human plasma are from Baxter Healthcare Corp., Dade Division, Miami, Fla. Bovine thrombin from Parke-Davis (Detroit, Mich.) is used for coagulation assays in plasma. Coagulation assay procedures are as previously described. […] A CoAScreener coagulation instrument (American LABor, Inc.) is used for all coagulation assay measurements. […] The compounds of formula I are added to human or animal plasma over a wide range of concentrations to determine prolongation effects on the APTT, PT, and TT assays. Linear extrapolations are performed to estimate the concentrations required to double the clotting time for each assay.

Human plasmin = molecular target: T1, Human plasmin (Homo sapiens, UniProt P00747); assay: Serine protease inhibition (Kass), plasmin
T1 construct: Human plasmin is purchased from Boehringer Mannheim; purchased Boehringer Mannheim, Indianapolis, Ind
Experimental: (§2) By substantially following the procedures described above for human thrombin, and using other human blood coagulation system serine proteases and using fibrinolytic system serine proteases, with the appropriate chromogenic substrates, identified below, the selectivity of the compounds of the present invention with respect to the coagulation factor serine proteases and to the fibronolytic serine proteases are evaluated as well as their substantial lack of interference with human plasma clot fibrinolysis.
(§3) Human plasmin is purchased from Boehringer Mannheim, Indianapolis, Ind.; nt-PA is purchased as single chain activity reference from American Diagnostica, Greenwich, Conn.; modified-t-PA6 (mt-PA6) is prepared at Eli Lilly and Company by procedure known in the art (See, Burck, et al., J. Biol. Chem., 265, […] (1990). Plasmin chromogenic substrate H-D-Val-Leu-Lys-p-nitroanilide and tissue plasminogen activator (t-PA) substrate H-D-Ile-Pro-Arg-p-nitroanilide are purchased from Kabi Vitrum, Stockholm, Sweden.

factor Xa = molecular target: T2, factor Xa (Homo sapiens, UniProt P00742); assay: Serine protease inhibition (Kass), factor Xa
T2 construct: Human factors X, Xa, IXa, XIa, and XIIa are purchased from Enzyme Research Laboratories; purchased Enzyme Research Laboratories, South Bend, Ind
Experimental: as §2
(§4) Human factors X, Xa, IXa, XIa, and XIIa are purchased from Enzyme Research Laboratories, South Bend, Ind.; human urokinase from Leo Pharmaceuticals, Denmark; and recombinant activated Protein C (aPC) is prepared at Eli Lilly and Co. substantially according to U.S. Pat. No. 4,981,952 incorporated by reference herein in its entirety. Chromogenic substrates: N-Benzoyl-Ile-Glu-Gly-Arg-p-nitroanilide (for factor Xa); N-Cbz-D-Arg-Gly-Arg-p-nitroanilide (for factor IXa assay as the factor Xa substrate); Pyroglutamyl-Pro-Arg-p-nitroanilide (for Factor XIa and for aPC); H-D-Pro-Phe-Arg-p-nitroanilide (for factor XIIa); and Pyroglutamyl-Gly-Arg-p-nitroanilide (for urokinase); are purchased from KabiVitrum, Stockholm, Sweden, or from Midwest Biotech, Fishers, Ind. Bovine trypsin is purchased from Worthington Biochemicals, Freehold, N.J., and human plasma kallikrein from Kabi Vitrum, Stockholm, Sweden. Chromogenic substrate H-D-Pro-Phe-Arg-p-nitroanilide for plasma kallikrein is purchased from Kabi Vitrum, Stockholm, Sweden. N-Benzoyl-Phe-Val-Arg-p-nitroanilide, the substrate for human thrombin and for trypsin, is synthesized according to procedures described above for the compounds of the present invention, using known methods of peptide coupling from commercially available reactants, or purchaed from Midwest Biotech, Fishers, Ind.

human thrombin = human thrombin (Homo sapiens, UniProt P00734); assay: Thrombin amidase inhibition (Kass), chromogenic substrate
Experimental: The assay is carried out by mixing 50 μl buffer (0.03M Tris, 0.15M NaCl, pH 7.4) with 25 μl of human thrombin solution (purified human thrombin, Enzyme Research Laboratories, South Bend, Ind., at 8 NIH units/ml) and 25 μl of test compound in a solvent (50% aqueous methanol (v:v)). Then 150 μl of an aqueous solution of the chromogenic substate (at 0.25 mg/ml) are added and the rates of hydrolysis of the substrate are measured by monitoring the reactions at 405 nm for the release of p-nitroaniline. Standard curves are constructed by plotting free thrombin concentration against hydrolysis rate. […] The amount of free inhibitor in each assay is calculated by subtracting the number of moles of bound thrombin from the number of moles of added inhibitor (test compound).
The Kass value is the hypothetical equilibrium constant for the reaction between thrombin and the test compound (I) . [formula]
Kass is calculated for a range of concentrations of test compounds and the mean value reported in units of liter per mole.

[2] = molecular target: T3, tissue plasminogen activator (t-PA) (Homo sapiens, UniProt P00750); assay: Serine protease inhibition (Kass), t-PA
T3 construct: purchased American Diagnostica, Greenwich, Conn
Experimental: as §2, §3

human plasma [3] = assay: Human plasma anticoagulation, thrombin time (TT)
Experimental: as §1

human plasma [4] = assay: Human plasma anticoagulation, activated partial thromboplastin time (APTT)
Experimental: as §1

Bovine trypsin = molecular target: T4, Bovine trypsin (Bos taurus, UniProt P00760); assay: Serine protease inhibition (Kass), trypsin
T4 construct: Bovine trypsin is purchased from Worthington Biochemicals; purchased Worthington Biochemicals, Freehold, N.J
T4 sequence (P00760 24-246): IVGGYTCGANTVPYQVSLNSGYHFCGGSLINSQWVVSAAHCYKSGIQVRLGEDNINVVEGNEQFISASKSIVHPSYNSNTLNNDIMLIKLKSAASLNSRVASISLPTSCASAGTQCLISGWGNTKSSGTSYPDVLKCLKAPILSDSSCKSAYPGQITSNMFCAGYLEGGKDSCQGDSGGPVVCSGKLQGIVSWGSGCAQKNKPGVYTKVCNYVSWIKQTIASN
Experimental: as §2, §4

T1 sequence (P00747 581-810 limits assumed): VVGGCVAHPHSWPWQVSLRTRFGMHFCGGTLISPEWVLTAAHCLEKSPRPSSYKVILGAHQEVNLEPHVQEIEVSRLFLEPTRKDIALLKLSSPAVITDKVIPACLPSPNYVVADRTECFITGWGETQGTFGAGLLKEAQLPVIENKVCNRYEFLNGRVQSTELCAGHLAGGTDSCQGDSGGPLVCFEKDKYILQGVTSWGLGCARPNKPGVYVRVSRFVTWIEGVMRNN
T1 sequence (P00747 97-580 partner limits assumed): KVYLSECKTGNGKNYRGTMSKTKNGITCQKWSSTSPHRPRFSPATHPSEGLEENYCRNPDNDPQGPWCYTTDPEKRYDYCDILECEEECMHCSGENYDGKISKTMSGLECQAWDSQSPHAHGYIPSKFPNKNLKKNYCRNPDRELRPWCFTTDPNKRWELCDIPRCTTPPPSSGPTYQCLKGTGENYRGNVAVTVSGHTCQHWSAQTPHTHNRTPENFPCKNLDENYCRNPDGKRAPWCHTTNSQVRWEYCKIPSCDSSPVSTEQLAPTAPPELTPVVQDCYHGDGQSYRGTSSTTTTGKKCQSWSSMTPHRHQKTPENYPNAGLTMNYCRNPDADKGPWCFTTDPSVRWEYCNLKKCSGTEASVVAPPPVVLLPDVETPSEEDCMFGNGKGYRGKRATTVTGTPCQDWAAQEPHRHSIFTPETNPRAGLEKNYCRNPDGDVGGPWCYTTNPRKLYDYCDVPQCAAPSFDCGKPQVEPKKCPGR
T2 sequence (P00742 235-488 limits assumed): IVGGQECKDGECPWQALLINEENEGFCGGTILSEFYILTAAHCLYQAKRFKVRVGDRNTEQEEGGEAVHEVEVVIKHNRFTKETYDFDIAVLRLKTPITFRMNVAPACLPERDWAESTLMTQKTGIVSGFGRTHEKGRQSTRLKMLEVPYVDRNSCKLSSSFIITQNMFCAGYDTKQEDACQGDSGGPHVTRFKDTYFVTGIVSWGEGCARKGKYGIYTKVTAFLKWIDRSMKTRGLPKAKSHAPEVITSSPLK
T2 sequence (P00742 41-179 partner limits assumed): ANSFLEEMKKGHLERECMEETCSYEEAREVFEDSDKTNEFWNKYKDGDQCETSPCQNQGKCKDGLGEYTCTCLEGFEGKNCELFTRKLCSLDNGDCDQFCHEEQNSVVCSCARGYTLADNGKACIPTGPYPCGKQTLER
T3 sequence (P00750 36-562): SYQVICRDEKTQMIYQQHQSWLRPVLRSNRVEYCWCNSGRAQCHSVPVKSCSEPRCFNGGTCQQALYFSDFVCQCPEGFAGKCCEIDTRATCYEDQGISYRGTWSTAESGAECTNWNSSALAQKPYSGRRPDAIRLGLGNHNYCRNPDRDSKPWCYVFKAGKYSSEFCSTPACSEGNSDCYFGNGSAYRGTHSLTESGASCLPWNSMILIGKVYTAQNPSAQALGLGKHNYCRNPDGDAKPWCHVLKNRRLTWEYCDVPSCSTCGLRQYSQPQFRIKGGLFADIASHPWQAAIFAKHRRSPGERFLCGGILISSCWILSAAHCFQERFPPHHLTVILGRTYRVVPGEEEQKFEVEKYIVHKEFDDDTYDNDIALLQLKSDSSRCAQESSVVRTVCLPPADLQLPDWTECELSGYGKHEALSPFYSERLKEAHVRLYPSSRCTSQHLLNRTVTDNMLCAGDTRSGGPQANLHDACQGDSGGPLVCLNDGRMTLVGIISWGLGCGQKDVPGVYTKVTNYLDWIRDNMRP

| Structure (SMILES) | 2 × Clotting time PT (human plasma [1]) | Kass Plasmin (Human plasmin) [L/mol × 10^6] | Kass Xa (factor Xa) [L/mol × 10^6] | Kass Human Thrombin (human thrombin) [L/mol × 10^6] | Kass t-PA [2] [L/mol × 10^6] | 2 × Clotting time TT (human plasma [3]) [ng/mL] | 2 × Clotting time APTT (human plasma [4]) | Kass Trypsin (Bovine trypsin) [L/mol × 10^6] |
| --- | --- | --- | --- | --- | --- | --- | --- | --- |
| CCS(=O)(=O)NC1(C(=O)N2CCC[C@H]2C(=O)N[C@H](C=O)CCCNC(=N)N)CCCCC1.Cl [Example 31, 1-(ethylsulfonylamino)cyclohexoyl-L-prolinyl-L-arginine aldehyde hydrochloride] | 11,000 ng/mL | 0.010 | 0.036 | 3.2 | 0.00034 | 300 | 12,000 ng/mL | 0.42 |
| Cl.Cl.N=C(N)NCCC[C@@H](C=O)NC(=O)[C@]1(Cc2ccccc2)CCCN1C(=O)[C@@H]1CCCN1 [Example 25, Prolinyl (αbenzyl)-L-Prolinyl-L-Arginine Aldehyde Dihydrochloride] | 1,400 ng/mL | 0.77 | 0.27 | 350 | 0.0045 | 28 | 960 ng/mL | 43 |
| CCCC[C@](Cc1ccccc1)(NC(=O)OCC)C(=O)N1CCC[C@H]1C(=O)N[C@H](C=O)CCCNC(=N)N.Cl [Example 39, N-ethoxycarbonyl-D-phenylalanyl(αn-butyl)-L-prolinyl-L-arginine aldehyde hydrochloride] | 3,000 ng/mL | 0.066 | 0.095 | 66 | < 0.001 | 160 | 3,400 ng/mL | 21 |
| CCS(=O)(=O)NC(C)(C(=O)N1CCC[C@H]1C(=O)N[C@H](C=O)CCCNC(=N)N)c1ccccc1.Cl (stereo partly drawn) [Example 41, N-ethylsulfonyl-(D,L)-phenylglycinyl(αmethyl)-L-prolinyl-L-arginine aldehyde hydrochloride] | 2,100 ng/mL | 1.2 | 0.49 | 430 | 0.023 | 52 | 1,200 ng/mL | 42 |
| CCOC(=O)N[C@H](CC1CCCCC1)C(=O)N1CCC[C@H]1C(=O)N[C@H](C=O)CCCNC(=N)N.Cl [Example 78, N-(ethoxycarbonyl)-D-cyclohexylalanyl-L-prolinyl-L-Arginine Aldehyde Hydrochloride] | 890 ng/mL | 26 | 8.1 | 360 | 0.75 | 48 | 410 ng/mL | 140 |
| Cl.Cn1c(C(=O)N[C@@](C)(C(=O)N2CC[C@H]2C(=O)N[C@H](C=O)CCCNC(=N)N)c2ccccc2)cc2ccccc21 [Example 23, 1-methylindole-2-carbonyl-D-(α-methyl)phenylglycine-Azt-Arg-H hydrochloride] | 1,980 ng/mL | 0.55 | 0.06 | 79 | 0.02 | 59 | 1,800 ng/mL | 29 |
| CCOC(=O)N[C@](CC)(Cc1ccccc1)C(=O)N1CCC[C@H]1C(=O)N[C@H](C=O)CCCNC(=N)N.Cl [Example 35, N-ethoxycarbonyl-D-phenylalanyl(αethyl)-L-prolinyl-L-arginine aldehyde hydrochloride] | 3,300 ng/mL | 0.12 | 0.036 | 57 | 0.002 | 93 | 3,200 ng/mL | 4.9 |
| CCCN(CCC)S(=O)(=O)c1ccc(C(=O)N[C@H](Cc2ccccc2)C(=O)N2CCC[C@H]2C(=O)N[C@H](C=O)CCCNC(=N)N)cc1.Cl [Example 73, N-(4-di-n-propylaminosulfonylbenzoyl)-D-phenylalanyl-L-Prolinyl-L-Arginine Aldehyde Hydrochloride] | 4,800 ng/mL | 0.86 | 0.32 | 43 | 0.62 | 150 | 3,500 ng/mL | 15 |
| CCS(=O)(=O)N[C@@H](C(=O)N1CCC[C@H]1C(=O)N[C@H](C=O)CCCNC(=N)N)C1CCCCC1.Cl [Example 66, N-(ethylsulfonyl)-D-cyclohexylglycinyl-L-Prolinyl-L-Arginine Aldehyde Hydrochloride] | 1,100 ng/mL | 13 | 24 | 260 | 0.11 | 46 | 330 ng/mL | 260 |
| CCCCC(Cc1ccccc1)(NC(=O)OCC)C(=O)N1CCC[C@H]1C(=O)N[C@H](C=O)CCCNC(=N)N (stereo partly drawn) [Example 40, N-ethoxycarbonylphenylalanyl(αn-butyl)-L-prolinyl-L-arginine aldehyde] | 2,400 ng/mL | 0.13 | 0.088 | 47 | 0.001 | 91 | 3,100 ng/mL | 15 |
| CCS(=O)(=O)N[C@H](Cc1ccccc1)C(=O)N1CCC[C@@]1(C)C(=O)N[C@H](C=O)CCCNC(=N)N.Cl [Example 28, N-ethylsulfonyl-D-Phenylalanyl(α-methyl)-L-prolinyl-L-arginine aldehyde hydrochloride] | 2,400 ng/mL | 0.31 | 0.11 | 24 | 0.051 | 100 | 1,600 ng/mL | 20 |
